Broadly, the IC50 is the point on the concentration scale where inhibition reaches its midpoint. Low readings indicate inhibition by little substance, high ones a need for much substance. Usually inhibition stands for the change of the read-out against control, counted positive when it falls.

Among the data in ChEMBL document CHEMBL5244257, “The role of imidazole and benzimidazole heterocycles in Chagas disease: A review” (Eur J Med Chem, 2020) are IC50 and inhibition values, retold here.

Assay [1] deals with Trypanosoma cruzi. The assay can be described thus: Antitrypanosomal activity against Trypanosoma cruzi Tulahuen strain trypomastigotes infected in human MRC5 cells measured after 7 days. Format: functional, organism-based. To be noted: MRC5, 168 h.
Assay [2] addresses T1, Cruzipain (Trypanosoma cruzi, UniProt P25779). As to the kind of experiment: Inhibition of Trypanosoma cruzi Cruzain.
Assay [3] concerns Trypanosoma cruzi. The assay can be described thus: Antitrypanosomal activity against Trypanosoma cruzi epimastigotes. Format: functional, organism-based.
The nature of assay [4]: Inhibition of Trypanosoma cruzi epimastigotes Fe-SOD by Bradford method.
For assay [5], the system named is Trypanosoma cruzi. The assay can be described thus: Antitrypanosomal activity against Trypanosoma cruzi IRHOD/CO/2008/SN3 epimastigotes. Format: functional, organism-based.
For assay [6], the system named is Trypanosoma cruzi. As to the kind of experiment: Antiparasitic activity against Trypanosoma cruzi Tulahuen strain amastigotes. Format: functional, organism-based.
Assay [7] has as its system Trypanosoma cruzi. As to the kind of experiment: Antitrypanosomal activity against Trypanosoma cruzi Tulahuen 2 epimastigotes measured after 5 days. Format: functional, organism-based. To be noted: Tulahuen 2, 120 h.
Assay [8] addresses T1, Cruzipain. The assay can be described thus: Inhibition of Trypanosoma cruzi Tulahuen 2 Cruzain using Z-Phe-Arg-AMC as flurogenic substrate at 100 uM by spectrophotometry based analysis relative to control.
Assay [9] deals with Trypanosoma cruzi. As to the kind of experiment: Trypanocidal activity against Trypanosoma cruzi trypomastigotes. Format: functional, organism-based.
Assay [10] has as its system Trypanosoma cruzi. The assay can be described thus: Antitrypanosomal activity against Trypanosoma cruzi trypomastigotes. Format: functional, organism-based.
Assay [11] deals with Trypanosoma cruzi. The assay can be described thus: Antitrypanosomal activity against Trypanosoma cruzi Y strain amastigotes incubated for 24 hrs by microscopy analysis. Format: functional, organism-based.
For assay [12], the target named is T1, Cruzipain. As to the kind of experiment: Inhibition of Trypanosoma cruzi Cruzain using Z-Phe-Arg-AMC as flurogenic substrate.
In assay [13] the test system is Trypanosoma cruzi. As to the kind of experiment: Antitrypanosomal activity against Trypanosoma cruzi Tulahuen LacZ amastigotes infected in human HFF-1 cells incubated for 120 hrs. Format: functional, organism-based. To be noted: HFF-1, 120 h.
Assay [14] relates to Trypanosoma cruzi. As to the kind of experiment: Inhibition of Trypanosoma cruzi TIM at 100 uM relative to control.
A short description of assay [15]: Inhibition of Trypanosoma cruzi TIM.
Assay [16] deals with Trypanosoma cruzi. As to the kind of experiment: Antitrypanosomal activity against of Trypanosoma cruzi Tulahuen strain amastigotes infected in mouse 3T3 cells by alamar blue staining based analysis. To be noted: NIH3T3. Format: functional, organism-based. A general note: Alamar Blue is a resazurin reagent that responds to reducing activity.
Assay [17] has as its system Trypanosoma cruzi. The assay can be described thus: Antitrypanosomal activity against bloodstream form of Trypanosoma cruzi Y […] measured after 24 hrs by giemsa staining based microscopic analysis. Format: functional, organism-based.
For assay [18], the system named is Trypanosoma cruzi. As to the kind of experiment: Antitrypanosomal activity against of Trypanosoma cruzi Y trypomastigotes measured after 48 hrs by giemsa staining based microscopic analysis. Format: functional, organism-based.
The test system of assay [19] is Trypanosoma cruzi. The assay can be described thus: Antitrypanosomal activity against of Trypanosoma cruzi amastigotes. Format: functional, organism-based.
The subject of assay [20] is Trypanosoma cruzi. As to the kind of experiment: Inhibition of Trypanosoma cruzi assessed as inhibition of parasite growth at 100 uM relative to control. Format: functional.
The test system of assay [21] is Trypanosoma cruzi. The assay can be described thus: Antitrypanosomal activity against Trypanosoma cruzi Y strain trypomastigotes infected in Swiss albino mouse incubated for 24 hrs. Format: functional, organism-based.

T1 sequence (P25779 whole entry): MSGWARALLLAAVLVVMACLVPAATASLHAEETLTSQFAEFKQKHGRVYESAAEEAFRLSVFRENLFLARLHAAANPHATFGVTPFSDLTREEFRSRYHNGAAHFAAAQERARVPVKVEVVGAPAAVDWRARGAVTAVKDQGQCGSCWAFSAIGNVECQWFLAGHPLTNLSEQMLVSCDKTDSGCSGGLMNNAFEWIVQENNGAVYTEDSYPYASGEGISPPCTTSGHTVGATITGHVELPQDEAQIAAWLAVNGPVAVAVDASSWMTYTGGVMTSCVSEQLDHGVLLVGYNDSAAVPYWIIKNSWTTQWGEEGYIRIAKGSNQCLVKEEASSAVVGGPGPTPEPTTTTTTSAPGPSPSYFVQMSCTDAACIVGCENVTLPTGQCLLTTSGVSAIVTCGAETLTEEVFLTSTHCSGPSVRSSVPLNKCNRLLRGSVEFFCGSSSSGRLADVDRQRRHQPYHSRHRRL

On to `Brc1ccc(-c2c[nH]c(-c3ccccn3)n2)cc1`, for which half-maximal inhibition with Trypanosoma cruzi [1] (IC50) was put at 1200 nM.

For the compound `Cc1ccccc1OCC(=O)NCCc1nc2ccccc2[nH]1`, the IC50 at Cruzipain [2] was determined as 1600 nM.

In the case of `Cc1cc(C)c(-n2cc[n+](-c3c(C)cc(C)cc3C)c2)c(C)c1`, in the assay with Trypanosoma cruzi [3], the concentration for half-maximal inhibition (IC50) came out at 2000 nM.

Take `Oc1cccc2c(NCCc3c[nH]cn3)nnc(Cl)c12`: the figures for the IC50 (in [4]; in the assay with Trypanosoma cruzi [5]) were 27000 nM and 8500 nM, respectively.

In the assay on Trypanosoma cruzi [6], `O=C(N[C@@H](Cn1ccnc1)c1ccc(-c2ccc(F)cc2)cc1F)c1ccc(-c2nnc(-c3ccccc3)o2)cc1` registered an IC50 of 0.8 nM.

For the compound `CCCCn1c(-c2ccc(Br)cc2)nc2ccccc21`, the IC50 in the assay with Trypanosoma cruzi [7] stood at 13300 nM; at Cruzipain [8] it was 55000 nM.

The compound `c1ccc(-c2nc(-c3cccc4ccccc34)c[nH]2)cc1` yielded an IC50 in the assay with Trypanosoma cruzi [9] of 35500 nM.

`O=C(N[C@@H](Cn1ccnc1)c1ccc(Cl)cc1Cl)c1ccc(-c2nnc(-c3ccccc3)o2)cc1`: the IC50 came out at 11000 nM in the assay with Trypanosoma cruzi [10] and 900 nM in the assay on Trypanosoma cruzi [11].

For `COc1ccc(O)c(-c2nc(C)c(C)[nH]2)c1`, half-maximal inhibition in the assay on Trypanosoma cruzi [3] (IC50) was put at 10700 nM.

On to `Cc1cccc(OCCNC(=O)n2ccnc2)c1`, for which the IC50 against Cruzipain [12] is 1000 nM; in the assay with Trypanosoma cruzi [13] it was 1100 nM.

`Cc1ccc(OCCn2c(CCNC(=O)C3CCCCC3)nc3ccccc32)cc1`: the IC50 in the assay on Trypanosoma cruzi [3] is 64000 nM; against Cruzipain [2] it was 2000 nM.

In the assay on Trypanosoma cruzi [14], `Cn1c(OC(N)=O)nc2cc(Oc3cccc4ccccc34)c(Cl)cc21` yielded an inhibition of 60%.

In the case of `c1ccc2c(c1)cnn1c[n+](C3CCCCC3)c(NC3CCCCC3)c21`, the IC50 in the assay with Trypanosoma cruzi [3] was 1140 nM.

`CSc1nc2cc(C(=O)Nc3ncc([N+](=O)[O-])s3)c(Cl)cc2n1C` had a half-maximal inhibitory concentration (IC50) in [15] of 100000 nM.

In the assay on Trypanosoma cruzi [9], `Sc1nc2cc(Cl)ccc2[nH]1` yielded an IC50 of 320000 nM.

In turn, `c1ccc(-c2ccc(Cn3cncc3CNc3ccc(-c4nc5ccccc5s4)c(-c4ccccc4)c3)cc2)cc1` gave an IC50 with Trypanosoma cruzi [16] of 20 nM.

For `C=C(c1ccccc1OCc1cccc(Cl)c1)n1ccnc1` [CROCONAZOLE], the IC50 in the assay with Trypanosoma cruzi [17] was 24000 nM; with Trypanosoma cruzi [18] it was 16000 nM.

In the assay with Trypanosoma cruzi [9], `CCOC(=O)Cc1[nH]c(-c2ccccc2)nc1-c1ccc(C)cc1` registered an IC50 of 51100 nM.

On Cruzipain [2], `Cc1ccc2[nH]c(CCNC(=O)COc3ccc4ccccc4c3Br)nc2c1` registered an IC50 of 610 nM.

`CN(C)c1ccc(-c2nc(-c3ccccc3)c(-c3ccccc3)[nH]2)cc1` had an IC50 in the assay on Trypanosoma cruzi [19] of 960 nM.

`O=C(COc1ccc2ccccc2c1Br)NCCc1nc2cc(Cl)ccc2[nH]1` registered an IC50 at Cruzipain [2] of 590 nM.

Take `c1ccc2c(c1)ccn1c[n+](C3CCCCC3)c(NC3CCCCC3)c21`: the half-inhibitory concentration (IC50) with Trypanosoma cruzi [3] was determined as 1020 nM.

Consider `CCOC(=O)c1nc2ccc([N+](=O)[O-])cc2n1OC(=O)OC(C)(C)C`, for which, in the assay on Trypanosoma cruzi [20], the inhibition at 100 µM is 61%.

In the assay with Trypanosoma cruzi [3], `CC(C)c1cccc(C(C)C)c1-n1cc[n+](-c2c(C(C)C)cccc2C(C)C)c1` had an IC50 of 1100 nM.

In turn, `Cn1c([N+](=O)[O-])cnc1C1=NOC2CCCCC12` (stereo unspecified) had an IC50 in the assay on Trypanosoma cruzi [3] of 33000 nM.

Compound `Cn1cnc([N+](=O)[O-])c1-n1cc(C2CC2)nn1` displayed an IC50 in the assay with Trypanosoma cruzi [21] of 5400 nM.

`COc1ccc(-n2c[n+](-c3ccc(OC)cc3)c(Cc3ccccc3)c2-c2ccc(C)cc2)cc1`: in the assay on Trypanosoma cruzi [3], inhibition was half-maximal at 440 nM (IC50).

The compound `Cc1ccc(-c2c[nH]c(NC(=O)N3CCN(c4ccc(C(F)(F)F)cc4[N+](=O)[O-])CC3)n2)cc1` showed an IC50 in the assay on Trypanosoma cruzi [1] of 2200 nM.

As for `Oc1ccc(-n2c[n+](-c3ccc4ccccc4c3)c(Cc3ccccc3)c2-c2ccc(Cl)cc2)cc1`, it took 540 nM to reach half-maximal inhibition in the assay with Trypanosoma cruzi [3] (IC50).

Consider `Cn1c([N+](=O)[O-])cnc1-c1c(-c2ccccc2)nc(-c2ccc(Br)cc2)n1O`, for which, in the assay on Trypanosoma cruzi [10], half-maximal inhibition (IC50) required 23900 nM.
